Columns and labels:
Assay type in all cases: cell-based
[1] = test system: beneficial oral bacteria and pathogenic oral bacteria; experiment: Twenty-four hour biofilm growth, overall prebiotic assessment; conditions: concentrations of 20 and 25 μmol/ml
Text: Substrates that were able to increase the biofilm mass of at least one of the above beneficial bacteria while not or only minimally increasing the biofilm mass of the pathogenic bacteria are considered to be prebiotic compounds.
(§1) The increase in biofilm formation of the tested bacteria in response to selected saccharides (D-turanose, D-lactitol, myo-inositol, and N-acetyl-D-mannosamine) was investigated by setting up biofilm growth assays in a nutritionally rich medium (brain heart infusion broth (BHI), Oxoid), over 24 hours. Late exponential growth phase liquid cultures were prepared by transferring the respective bacterium from blood agar plates to BHI and overnight incubation at 37° C. in an anaerobic atmosphere for A. viscosus, V. parvula, P. gingivalis, P. intermedia, T. forsythia, A. naeslundii, and C. sputigena, and in a 5% CO2 environment for S. salivarius, S. sanguinis, S. mitis, A. actinomycetemcomitans, S. mutans, and S. gordonii. Overnight cultures were transferred to BHI and adjusted to a concentration of 1×10^7 CFU/ml by measuring the optical density at 600 nm (OD600) (BioRad SmartSpec 3000). For each strain, 200 μl of the bacterial suspension was added to a 96-well plate containing 20 μl of the respective saccharides. Final concentrations of the saccharides were set to 5, 10, 20 and 25 μmol/ml. […] Additionally, for each bacterium tested, a background control, to correct for background staining, was added. This background control contained the bacterium tested and 0.03 weight % chlorhexidine, as an antiseptic. Plates were incubated as previously described. After 24 hrs the supernatant was removed from the wells of the plates. The wells were washed twice with 1×100 μL PBS (phosphate buffered saline), fixed for 20 minutes with 96% vol. ethanol (96% vol. solution in water) and the biofilm retained at the bottom of the wells was stained with 1 weight % crystal violet (1 weight % solution in water). The bound dye was dissolved with 5% vol. acetic acid (5% vol. solution in water). Quantification of the stained biofilm was performed by measuring the absorbance at 630 nm using a Multiskan Ascent microplate reader (Thermo Scientific).
The experiment was carried out on three different days (thus providing 3 biological replicas) and each day the experiment was carried out in quadruple (thus providing 4 technical replicas) for each combination of bacterium with saccharide and for each control. For each day and for each combination, the average (mean) of the values obtained (as detailed above) for the four technical replicas was calculated to provide a single value for each combination on each day. The values shown in Tables 7a, 7b, 8a, 8b, below, are the average (mean) of the three single values obtained for each combination of bacterium with saccharide. […]

S. mitis = experiment: Twenty-four hour biofilm growth (crystal violet)
Protocol: as §1
(§2) The experiment was carried out on three different days (thus providing 3 biological replicas) and each day the experiment was carried out in quadruple (thus providing 4 technical replicas) for each combination of bacterium with saccharide and for each control. For each day and for each combination, the average (mean) of the values obtained (as detailed above) for the four technical replicas was calculated to provide a single value for each combination on each day. The values shown in Tables 7a, 7b, 8a, 8b, below, are the average (mean) of the three single values obtained for each combination of bacterium with saccharide.

T. forsythia = experiment: Twenty-four hour biofilm growth (crystal violet)
Protocol: as §1, §2

S. salivarius = experiment: Twenty-four hour biofilm growth (crystal violet)
Protocol: as §1, §2

S. gordonii = experiment: Twenty-four hour biofilm growth (crystal violet)
Protocol: as §1, §2

P. intermedia = experiment: Twenty-four hour biofilm growth (crystal violet)
Protocol: as §1, §2

A. actinomycetemcomitans = experiment: Twenty-four hour biofilm growth (crystal violet)
Protocol: as §1, §2

S. mutans = experiment: Twenty-four hour biofilm growth (crystal violet); conditions: S mutans
Protocol: as §1, §2

A. viscosus = experiment: Twenty-four hour biofilm growth (crystal violet)
Protocol: as §1, §2

P. gingivalis = experiment: Twenty-four hour biofilm growth (crystal violet)
Protocol: as §1, §2

C. sputigena = experiment: Twenty-four hour biofilm growth (crystal violet)
Protocol: as §1, §2

V. parvula = experiment: Twenty-four hour biofilm growth (crystal violet)
Protocol: as §1, §2

S. sanguinis = experiment: Twenty-four hour biofilm growth (crystal violet)
Protocol: as §1, §2

A. naeslundii = experiment: Twenty-four hour biofilm growth (crystal violet)
Protocol: as §1, §2

## OC[C@H]1O[C@@](O)(CO)[C@@H](O[C@H]2O[C@H](CO)[C@@H](O)[C@H](O)[C@H]2O)[C@@H]1O [D-Turanose, α-D-glucopyranosyl-(1→3)-α-D-fructofuranose]
[1]
  prebiotic effects (biofilm growth, threshold value 1.6): exhibited prebiotic effects
S. mitis; 5 μmol/ml
  biofilm growth: OD 630 nm at 24 hrs divided by OD of control (control = 1): 1.9433
S. mitis; 10 μmol/ml
  biofilm growth: OD 630 nm at 24 hrs divided by OD of control (control = 1): 1.5717
S. mitis; 20 μmol/ml
  biofilm growth: OD 630 nm at 24 hrs divided by OD of control (control = 1): 0.5236
S. mitis; 25 μmol/ml
  biofilm growth: OD 630 nm at 24 hrs divided by OD of control (control = 1): 0.3988
T. forsythia; 5 μmol/ml
  biofilm growth: OD 630 nm at 24 hrs divided by OD of control (control = 1): 0.8918
T. forsythia; 10 μmol/ml
  biofilm growth: OD 630 nm at 24 hrs divided by OD of control (control = 1): 0.9297
T. forsythia; 20 μmol/ml
  biofilm growth: OD 630 nm at 24 hrs divided by OD of control (control = 1): 0.7855
T. forsythia; 25 μmol/ml
  biofilm growth: OD 630 nm at 24 hrs divided by OD of control (control = 1): 0.8404
S. salivarius; 5 μmol/ml
  biofilm growth: OD 630 nm at 24 hrs divided by OD of control (control = 1): 0.9812
S. salivarius; 10 μmol/ml
  biofilm growth: OD 630 nm at 24 hrs divided by OD of control (control = 1): 0.9793
S. salivarius; 20 μmol/ml
  biofilm growth: OD 630 nm at 24 hrs divided by OD of control (control = 1): 0.8441
S. salivarius; 25 μmol/ml
  biofilm growth: OD 630 nm at 24 hrs divided by OD of control (control = 1): 0.8731
S. gordonii; 5 μmol/ml
  biofilm growth: OD 630 nm at 24 hrs divided by OD of control (control = 1): 1.0874
S. gordonii; 10 μmol/ml
  biofilm growth: OD 630 nm at 24 hrs divided by OD of control (control = 1): 1.1335
S. gordonii; 20 μmol/ml
  biofilm growth: OD 630 nm at 24 hrs divided by OD of control (control = 1): 1.1002
S. gordonii; 25 μmol/ml
  biofilm growth: OD 630 nm at 24 hrs divided by OD of control (control = 1): 1.2536
P. intermedia; 5 μmol/ml
  biofilm growth: OD 630 nm at 24 hrs divided by OD of control (control = 1): 2.0059
P. intermedia; 10 μmol/ml
  biofilm growth: OD 630 nm at 24 hrs divided by OD of control (control = 1): 1.8143
P. intermedia; 20 μmol/ml
  biofilm growth: OD 630 nm at 24 hrs divided by OD of control (control = 1): 1.5017
P. intermedia; 25 μmol/ml
  biofilm growth: OD 630 nm at 24 hrs divided by OD of control (control = 1): 1.1725
A. actinomycetemcomitans; 5 μmol/ml
  biofilm growth: OD 630 nm at 24 hrs divided by OD of control (control = 1): 0.9734
A. actinomycetemcomitans; 10 μmol/ml
  biofilm growth: OD 630 nm at 24 hrs divided by OD of control (control = 1): 0.9794
A. actinomycetemcomitans; 20 μmol/ml
  biofilm growth: OD 630 nm at 24 hrs divided by OD of control (control = 1): 1.0297
A. actinomycetemcomitans; 25 μmol/ml
  biofilm growth: OD 630 nm at 24 hrs divided by OD of control (control = 1): 0.9417
S. mutans; 5 μmol/ml
  biofilm growth: OD 630 nm at 24 hrs divided by OD of control (control = 1): 1.0356
S. mutans; 10 μmol/ml
  biofilm growth: OD 630 nm at 24 hrs divided by OD of control (control = 1): 1.1168
S. mutans; 20 μmol/ml
  biofilm growth: OD 630 nm at 24 hrs divided by OD of control (control = 1): 1.1403
S. mutans; 25 μmol/ml
  biofilm growth: OD 630 nm at 24 hrs divided by OD of control (control = 1): 1.1529
A. viscosus; 5 μmol/ml
  biofilm growth: OD 630 nm at 24 hrs divided by OD of control (control = 1): 0.1692
A. viscosus; 10 μmol/ml
  biofilm growth: OD 630 nm at 24 hrs divided by OD of control (control = 1): 0.0920
A. viscosus; 20 μmol/ml
  biofilm growth: OD 630 nm at 24 hrs divided by OD of control (control = 1): 0.0289
A. viscosus; 25 μmol/ml
  biofilm growth: OD 630 nm at 24 hrs divided by OD of control (control = 1): 0.0366
P. gingivalis; 5 μmol/ml
  biofilm growth: OD 630 nm at 24 hrs divided by OD of control (control = 1): 0.9121
P. gingivalis; 10 μmol/ml
  biofilm growth: OD 630 nm at 24 hrs divided by OD of control (control = 1): 0.8700
P. gingivalis; 20 μmol/ml
  biofilm growth: OD 630 nm at 24 hrs divided by OD of control (control = 1): 0.9602
P. gingivalis; 25 μmol/ml
  biofilm growth: OD 630 nm at 24 hrs divided by OD of control (control = 1): 0.9613
C. sputigena; 5 μmol/ml
  biofilm growth: OD 630 nm at 24 hrs divided by OD of control (control = 1): 0.9429
C. sputigena; 10 μmol/ml
  biofilm growth: OD 630 nm at 24 hrs divided by OD of control (control = 1): 0.9387
C. sputigena; 20 μmol/ml
  biofilm growth: OD 630 nm at 24 hrs divided by OD of control (control = 1): 0.9130
C. sputigena; 25 μmol/ml
  biofilm growth: OD 630 nm at 24 hrs divided by OD of control (control = 1): 0.9464
V. parvula; 5 μmol/ml
  biofilm growth: OD 630 nm at 24 hrs divided by OD of control (control = 1): 1.2298
V. parvula; 10 μmol/ml
  biofilm growth: OD 630 nm at 24 hrs divided by OD of control (control = 1): 1.3941
V. parvula; 20 μmol/ml
  biofilm growth: OD 630 nm at 24 hrs divided by OD of control (control = 1): 1.4942
V. parvula; 25 μmol/ml
  biofilm growth: OD 630 nm at 24 hrs divided by OD of control (control = 1): 1.3055
S. sanguinis; 5 μmol/ml
  biofilm growth: OD 630 nm at 24 hrs divided by OD of control (control = 1): 2.0761
S. sanguinis; 10 μmol/ml
  biofilm growth: OD 630 nm at 24 hrs divided by OD of control (control = 1): 2.7352
S. sanguinis; 20 μmol/ml
  biofilm growth: OD 630 nm at 24 hrs divided by OD of control (control = 1): 1.6356
S. sanguinis; 25 μmol/ml
  biofilm growth: OD 630 nm at 24 hrs divided by OD of control (control = 1): 1.9363
A. naeslundii; 5 μmol/ml
  biofilm growth: OD 630 nm at 24 hrs divided by OD of control (control = 1): 1.5849
A. naeslundii; 10 μmol/ml
  biofilm growth: OD 630 nm at 24 hrs divided by OD of control (control = 1): 1.4372
A. naeslundii; 20 μmol/ml
  biofilm growth: OD 630 nm at 24 hrs divided by OD of control (control = 1): 1.4348
A. naeslundii; 25 μmol/ml
  biofilm growth: OD 630 nm at 24 hrs divided by OD of control (control = 1): 1.4411
